Reference: patent US20240425479A1, “HALO-SUBSTITUTED AMINO AZA-HETEROARYL COMPOUNDS AS INHIBITORS OF THE HAEMATOPOIETIC PROGENITOR KINASE 1 (HPK1)” (priority 2021, published 2024)

The compounds below were run against T1, Recombinant (1-346) HPK1 (h) (Homo sapiens, UniProt Q92918) (assay: HPK1 human STE kinase enzymatic radiometric assay). Settings: read-out: HPK1 IC50 nM Range.
T1 construct: Recombinant (1-346) HPK1 (h) is incubated with 8 mM MOPS pH 7.0
T1 sequence (Q92918 1-346): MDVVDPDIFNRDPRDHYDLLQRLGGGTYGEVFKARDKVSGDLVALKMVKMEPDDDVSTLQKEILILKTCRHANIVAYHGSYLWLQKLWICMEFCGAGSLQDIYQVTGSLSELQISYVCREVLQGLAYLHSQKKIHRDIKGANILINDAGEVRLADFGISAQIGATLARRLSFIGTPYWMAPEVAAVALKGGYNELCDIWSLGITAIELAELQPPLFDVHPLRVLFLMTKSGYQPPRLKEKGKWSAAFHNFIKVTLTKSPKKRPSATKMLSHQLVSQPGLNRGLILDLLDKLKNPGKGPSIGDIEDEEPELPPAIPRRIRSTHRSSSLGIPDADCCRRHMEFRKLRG
Format: biochemical
How it was run: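 Compounds in 3-fold, 9-point serial dilution; kinase (residues 1-346) phosphorylates myelin basic protein (0.33 mg/mL) using [gamma-33P]-ATP at pH 7.0 (MOPS, EDTA, Mg acetate) for 40 min, room temperature. Acid-quenched mixture filtered onto P30 mats; incorporated radioactivity read by scintillation counting.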

| SMILES | IC50 |
| --- | --- |
| C[C@H]1CN(c2ccc(-c3nc(-c4ccc5c(c4)CCNC5=O)c(N)nc3F)cc2CN(C)C)CCO1 [Example I-211, (S)-6-(3-amino-6-(3-((dimethylamino)methyl)-4-(2-methylmorpholino)phenyl)-5-fluoropyrazin-2-yl)-3,4-dihydroisoquinolin-1(2H)-one] | 0.1 to 10 nM |
| C[C@H]1CN(c2ccc(-c3nc(-c4cc5c(cc4F)C(=O)NCC5)c(N)nc3F)cc2CN(C)C)CCO1 [Example I-212, (S)-6-(3-amino-6-(3-((dimethylamino)methyl)-4-(2-methylmorpholino)phenyl)-5-fluoropyrazin-2-yl)-7-fluoro-3,4-dihydroisoquinolin-1(2H)-one] | 0.1 to 10 nM |
| C[C@H]1CN(c2ccc(-c3nc(-c4cc(F)c5c(c4)CCNC5=O)c(N)nc3F)cc2CN(C)C)CCO1 [Example I-213, (S)-6-(3-amino-6-(3-((dimethylamino)methyl)-4-(2-methylmorpholino)phenyl)-5-fluoropyrazin-2-yl)-8-fluoro-3,4-dihydroisoquinolin-1(2H)-one] | 0.1 to 10 nM |
| C[C@H]1CN(c2ccc(-c3nc(-c4ccc5c(c4)CCNC5=O)c(N)nc3F)cc2CN2CCC2)CCO1 [Example I-214, (S)-6-(3-amino-6-(3-(azetidin-1-ylmethyl)-4-(2-methylmorpholino)phenyl)-5-fluoropyrazin-2-yl)-3,4-dihydroisoquinolin-1(2H)-one] | 0.1 to 10 nM |
| C[C@H]1CN(c2ccc(-c3nc(-c4cc5c(cc4F)C(=O)NCC5)c(N)nc3F)cc2CN2CCC2)CCO1 [Example I-215, (S)-6-(3-amino-6-(3-(azetidin-1-ylmethyl)-4-(2-methylmorpholino)phenyl)-5-fluoropyrazin-2-yl)-7-fluoro-3,4-dihydroisoquinolin-1(2H)-one] | 0.1 to 10 nM |
| C[C@H]1CN(c2ccc(-c3nc(-c4cc(F)c5c(c4)CCNC5=O)c(N)nc3F)cc2CN2CCC2)CCO1 [Example I-216, (S)-6-(3-amino-6-(3-(azetidin-1-ylmethyl)-4-(2-methylmorpholino)phenyl)-5-fluoropyrazin-2-yl)-8-fluoro-3,4-dihydroisoquinolin-1(2H)-one] | 11 to 100 nM |
| Cc1nc2cc(-c3nc(-c4ccc(C5CCOCC5)c(CN5CCC[C@H]5C)c4)c(F)nc3N)cc(F)c2c(=O)[nH]1 [Example I-217, (R)-7-(3-amino-5-fluoro-6-(3-((2-methylpyrrolidin-1-yl)methyl)-4-(tetrahydro-2H-pyran-4-yl)phenyl)pyrazin-2-yl)-5-fluoro-2-methylquinazolin-4(3H)-one] | 11 to 100 nM |
| C[C@@H]1CCCN1Cc1cc(-c2nc(-c3cc(F)c4c(c3)CCNC4=O)c(N)nc2F)ccc1C1CCOCC1 [Example I-218, (R)-6-(3-amino-5-fluoro-6-(3-((2-methylpyrrolidin-1-yl)methyl)-4-(tetrahydro-2H-pyran-4-yl)phenyl)pyrazin-2-yl)-8-fluoro-3,4-dihydroisoquinolin-1(2H)-one] | 11 to 100 nM |
| Cc1nc2cc(-c3nc(-c4ccc(C5CCOCC5)c(CN5CCC[C@@H]5C)c4)c(F)nc3N)cc(F)c2c(=O)[nH]1 [Example I-219, (S)-7-(3-amino-5-fluoro-6-(3-((2-methylpyrrolidin-1-yl)methyl)-4-(tetrahydro-2H-pyran-4-yl)phenyl)pyrazin-2-yl)-5-fluoro-2-methylquinazolin-4(3H)-one] | 101 to 1000 nM |
| C[C@H]1CCCN1Cc1cc(-c2nc(-c3cc(F)c4c(c3)CCNC4=O)c(N)nc2F)ccc1C1CCOCC1 [Example I-220, (S)-6-(3-amino-5-fluoro-6-(3-((2-methylpyrrolidin-1-yl)methyl)-4-(tetrahydro-2H-pyran-4-yl)phenyl)pyrazin-2-yl)-8-fluoro-3,4-dihydroisoquinolin-1(2H)-one] | 11 to 100 nM |
| Cc1cc(-c2nc(-c3cc(F)c4c(c3)CCNC4=O)c(N)nc2F)ccc1C1CCOCC1 [Example I-221, 6-(3-amino-5-fluoro-6-(3-methyl-4-(tetrahydro-2H-pyran-4-yl)phenyl)pyrazin-2-yl)-8-fluoro-3,4-dihydroisoquinolin-1(2H)-one] | 0.1 to 10 nM |
| Cc1cc(-c2nc(-c3cc4c(cc3F)C(=O)NCC4)c(N)nc2F)ccc1C1CCOCC1 [Example I-222, 6-(3-amino-5-fluoro-6-(3-methyl-4-(tetrahydro-2H-pyran-4-yl)phenyl)pyrazin-2-yl)-7-fluoro-3,4-dihydroisoquinolin-1(2H)-one] | 0.1 to 10 nM |
| CCN(C)Cc1cc(-c2nc(-c3ccc4c(c3)C(F)(F)CNC4=O)c(N)nc2F)ccc1C1CCOCC1 [Example I-224, 6-(3-amino-6-(3-((ethyl(methyl)amino)methyl)-4-(tetrahydro-2H-pyran-4-yl)phenyl)-5-fluoropyrazin-2-yl)-4,4-difluoro-3,4-dihydroisoquinolin-1(2H)-one] | 0.1 to 10 nM |
| CCN(C)Cc1cc(-c2nc(-c3ccc4c(c3)C(F)(F)CNC4=O)c(N)nc2F)ccc1C1=CCOCC1 [Example I-225, 6-(3-amino-6-(4-(3,6-dihydro-2H-pyran-4-yl)-3-((ethyl(methyl)amino)methyl)phenyl)-5-fluoropyrazin-2-yl)-4,4-difluoro-3,4-dihydroisoquinolin-1(2H)-one] | 11 to 100 nM |
| C[C@@H]1CCCN1Cc1cc(-c2nc(-c3ccc4c(=O)[nH]cc(F)c4c3)c(N)nc2F)ccc1C1CCOCC1 [Example I-226, (R)-6-(3-amino-5-fluoro-6-(3-((2-tmethylpyrrolidin-1-yl)methyl)-4-(tetrahydro-2H-pyran-4-yl)phenyl)pyrazin-2-yl)-4-fluoroisoquinolin-1(2H)-one] | 0.1 to 10 nM |
| C[C@@H]1CCCN1Cc1cc(-c2nc(-c3ccc4c(=O)[nH]cc(Cl)c4c3)c(N)nc2F)ccc1C1CCOCC1 [Example I-227, (R)-6-(3-amino-5-fluoro-6-(3-((2-methylpyrrolidin-1-yl)methyl)-4-(tetrahydro-2H-pyran-4-yl)phenyl)pyrazin-2-yl)-4-chloroisoquinolin-1(2H)-one] | 11 to 100 nM |
| C[C@H]1CCCN1Cc1cc(-c2nc(-c3ccc4c(=O)[nH]cc(F)c4c3)c(N)nc2F)ccc1C1CCOCC1 [Example I-228, (S)-6-(3-amino-5-fluoro-6-(3-((2-methylpyrrolidin-1-yl)methyl)-4-(tetrahydro-2H-pyran-4-yl)phenyl)pyrazin-2-yl)-4-fluoroisoquinolin-1(2H)-one] | 0.1 to 10 nM |
| C[C@H]1CCCN1Cc1cc(-c2nc(-c3ccc4c(=O)[nH]cc(Cl)c4c3)c(N)nc2F)ccc1C1CCOCC1 [Example I-229, (S)-6-(3-amino-5-fluoro-6-(3-((2-methylpyrrolidin-1-yl)methyl)-4-(tetrahydro-2H-pyran-4-yl)phenyl)pyrazin-2-yl)-4-chloroisoquinolin-1(2H)-one] | 11 to 100 nM |
| C[C@@H]1CN(c2ccc(-c3nc(-c4ccc5c(=O)[nH]cc(F)c5c4)c(N)nc3F)cc2CN(C)C)C[C@H](C)O1 [Example I-230, 6-(3-amino-6-(3-((dimethylamino)methyl)-4-((2R,6S)-2,6-dimethylmorpholino)phenyl)-5-fluoropyrazin-2-yl)-4-fluoroisoquinolin-1(2H)-one] | 0.1 to 10 nM |
| C[C@@H]1CN(c2ccc(-c3nc(-c4ccc5c(=O)[nH]cc(Cl)c5c4)c(N)nc3F)cc2CN(C)C)C[C@H](C)O1 [Example I-231, 6-(3-amino-6-(3-((dimethylamino)methyl)-4-((2R,6S)-2,6-dimethylmorpholino)phenyl)-5-fluoropyrazin-2-yl)-4-chloroisoquinolin-1(2H)-one] | 0.1 to 10 nM |
